Data taken from patent US9902726B2, “Pyridone-sulfone morphinan analogs as opioid receptor ligands” (Purdue Pharma L.P., priority 2013, dated 2018).

What was measured:
[1] = biological target: recombinant human kappa opioid receptor (κ) (Homo sapiens (Human), UniProt P41145); assay: κ-opioid receptor radioligand dose-displacement binding assay ([3H]-U69,593)
Description: κ-Opioid Receptor Binding Assay Procedures: Membranes from HEK-293 cells, CHO cells, or U-2 OS cells expressing the recombinant human kappa opioid receptor (κ) were prepared by lysing cells in ice cold hypotonic buffer (2.5 mM MgCl2, 50 mM HEPES, pH 7.4) (10 mL/10 cm dish) followed by homogenization with a tissue grinder/Teflon pestle. Membranes from a cell line naturally expressing kappa opioid receptor can also be used. Membranes were collected by centrifugation at 30,000×g for 15 min at 4° C. and pellets were resuspended in hypotonic buffer to a final concentration of 1-3 mg/mL. Protein concentrations were determined using the BioRad protein assay reagent with bovine serum albumen as standard. Aliquots of κ receptor membranes were stored at −80° C.
Radioligand dose displacement assays used 0.4 nM [^3H]-U69,593 (GE Healthcare, Piscataway, N.J.; 40 Ci/mmole) with 15 μg membrane protein (recombinant κ opioid receptor expressed in HEK 293 cells; in-house prep) in a final volume of 200 μl binding buffer (5% DMSO, 50 mM Trizma base, pH 7.4). Non-specific binding was determined in the presence of 10 μM unlabeled naloxone or U69,593. All reactions were performed in 96-well polypropylene plates for 1 hour at a temperature of about 25° C.

[2] = biological target: T1, μ-opioid receptor (Homo sapiens (Human), UniProt P35372); assay: μ-opioid receptor [35S]GTPγS functional assay, HEK-293 or CHO cells; assay type: biochemical; conditions: for Emax: HEK-293 or CHO cells, relative to DAMGO
Description: (§1) μ-Opioid Receptor Functional Assay Procedures: [^35S]GTPγS functional assays were conducted using freshly thawed μ-receptor membranes prepared in-house from a cell line expressing recombinant μ opioid receptor in a HEK-293, CHO, or U-2 OS cell background or purchased from a commercial source (Perkin Elmer, Shelton, Conn.). Assay reactions were prepared by sequentially adding the following reagents to binding buffer (100 mM NaCl, 10 mM MgCl2, 20 mM HEPES, pH 7.4) on ice (final concentrations indicated): membrane protein (0.026 mg/mL), saponin ([…]), GDP ([…]) and [^35S]GTPγS (0.20 nM; Perkin Elmer, Shelton, Conn.). The prepared membrane solution (190 μl/well) was transferred to 96-shallow well polypropylene plates containing 10 μl of 20× concentrated stock solutions of the agonist [D-Ala^2, N-methyl-Phe^4 Gly-ol^5]-enkephalin (DAMGO) prepared in dimethyl sulfoxide (DMSO). Plates were incubated for 30 min at about 25° C. with shaking. […] Data were analyzed using the sigmoidal dose-response curve fitting functions in GraphPad PRISM v. 3.0, or an in-house function for non-linear, sigmoidal dose-response curve-fitting. [^35S]GTPγS functional assays can also be conducted using freshly thawed μ-receptor membranes prepared from a cell line expressing recombinant opioid receptor in a CHO-K1 cell background.
(§2) μ-Opioid Receptor Functional Data: μ GTP EC50 is the concentration of a compound providing 50% of the maximal response for the compound at a μ-opioid receptor.
(§3) μ GTP Emax (%) is the maximal effect elicited by a compound relative to the effect elicited by DAMGO, a standard μ agonist. Generally, the μ GTP Emax (%) value measures the efficacy of a compound to treat or prevent pain or other Conditions.

[3] = biological target: T2, κ opioid receptor (Homo sapiens (Human), UniProt P41145); assay: κ-opioid receptor [35S]GTPγS functional assay, HEK-293 or CHO cells; assay type: biochemical; conditions: for Emax: HEK-293 or CHO cells, relative to U69,593
Description: (§4) κ-Opioid Receptor Functional Assay Procedures: Functional [^35S]GTPγS binding assays were conducted as follows. κ opioid receptor membrane solution was prepared by sequentially adding final concentrations of 0.026 μg/μl κ membrane protein (in-house), 10 μg/mL saponin, 3 μM GDP and 0.20 nM [^35S]GTPγS to binding buffer (100 mM NaCl, 10 mM MgCl2, 20 mM HEPES, pH 7.4) on ice. The prepared membrane solution (190 μl/well) was transferred to 96-shallow well polypropylene plates containing 10 μl of 20× concentrated stock solutions of agonist prepared in DMSO. Plates were incubated for 30 min at a temperature of about 25° C. with shaking.
(§5) κ-Opioid Receptor Functional Data: κ GTP EC50 is the concentration of a compound providing 50% of the maximal response for the compound at a κ receptor.
(§6) κ GTP Emax (%) is the maximal effect elicited by a compound relative to the effect elicited by U69,593.

[4] = biological target: T1, μ-opioid receptor; assay: μ-opioid receptor [35S]GTPγS functional assay, U-2 OS cells; assay type: biochemical; conditions: for Emax: U-2 OS cells, relative to DAMGO
Description: as §1, §2, §3

[5] = biological target: T2, κ opioid receptor; assay: κ-opioid receptor [35S]GTPγS functional assay, U-2 OS cells; assay type: biochemical; conditions: for Emax: U-2 OS cells, relative to U69,593
Description: as §4, §5, §6

[6] = biological target: T1, μ-opioid receptor; assay: μ-opioid receptor radioligand dose-displacement binding assay ([3H]-diprenorphine)
Description: Radioligand dose-displacement binding assays for μ-opioid receptors used 0.3 nM [^3H]-diprenorphine (Perkin Elmer, Shelton, Conn.), with 5 mg membrane protein/well in a final volume of 500 μl binding buffer (10 mM MgCl2, 1 mM EDTA, 5% DMSO, 50 mM HEPES, pH 7.4). Reactions were carried out in the absence or presence of increasing concentrations of unlabeled naloxone. All reactions were conducted in 96-deep well polypropylene plates for 2 hours at room temperature. Binding reactions were terminated by rapid filtration onto 96-well Unifilter GF/C filter plates (Perkin Elmer, Shelton, Conn.), presoaked in 0.5% polyethylenimine using a 96-well tissue harvester (Perkin Elmer, Shelton, Conn.) followed by performing three filtration washes with 500 μl of ice-cold binding buffer. Filter plates were subsequently dried at 50° C. for 2-3 hours. BetaScint scintillation cocktail (Perkin Elmer, Shelton, Conn.) was added (50 μl/well), and plates were counted using a Packard Top-Count for 1 min/well. The data were analyzed using the one-site competition curve fitting functions in GraphPad PRISM™ v.

Row | SMILES | Ki [1] [µM] | EC50 [2] [µM] | Emax [2] [%] | EC50 [3] [µM] | Emax [3] [%] | EC50 [4] [µM] | Emax [4] [%] | EC50 [5] [µM] | Emax [5] [%] | Ki [6] [µM]
1 | CS(=O)(=O)c1cc2c([nH]c1=O)C[C@]13CCN(CC4CC4)[C@H](Cc4ccc(O)cc41)[C@]3(O)C2 [Compound 5, (6R,6aS,12aR)-15-(cyclopropylmethyl)-2,6a-dihydroxy-9-(methylsulfonyl)-6a,7,11,12-tetrahydro-5H-6,12a-(epiminoethano)naphtho[2,1-g]quinolin-10(6H)-one] | 0.00036 ± 9.1e-05 | > 20 | 1 | 0.00127 ± 0.0003 | 10.3 ± 0.67 | > 20 | 2 | 0.00085 ± 7.5e-05 | 55.7 ± 2.4 | 0.00076 ± 0.00013
2 | O=c1[nH]c2c(cc1S(=O)(=O)c1ccccc1)C[C@@]1(O)[C@H]3Cc4ccc(O)cc4[C@@]1(CCN3CC1CC1)C2 [Compound 6, (6R,6aS,12aR)-15-(cyclopropylmethyl)-2,6a-dihydroxy-9-(phenylsulfonyl)-6a,7,11,12-tetrahydro-5H-6,12a-(epiminoethano)naphtho[2,1-g]quinolin-10(6H)-one] |  |  |  |  |  | > 20 | 2 | 0.00026 ± 5.5e-05 | 33.2 ± 2.84 | 
3 | CN1CC[C@]23Cc4[nH]c(=O)c(S(C)(=O)=O)cc4C[C@@]2(O)[C@H]1Cc1ccc(O)cc13 [Compound 7, (6R,6aS,12aR)-2,6a-dihydroxy-15-methyl-9-(methylsulfonyl)-6a,7,11,12-tetrahydro-5H-6,12a-(epiminoethano)naphtho[2,1-g]quinolin-10(6H)-one] |  |  |  |  |  | 0.148 ± 0.00621 | 68 ± 1.15 | 0.203 ± 0.0477 | 71.3 ± 3.33 | 
4 | CN1CC[C@]23Cc4[nH]c(=O)c(S(=O)(=O)c5ccccc5)cc4C[C@@]2(O)[C@H]1Cc1ccc(O)cc13 [Compound 8, (6R,6aS,12aR)-2,6a-dihydroxy-15-methyl-9-(phenylsulfonyl)-6a,7,11,12-tetrahydro-5H-6,12a-(epiminoethano)naphtho[2,1-g]quinolin-10(6H)-one] | 0.0195 ± 0.00269 |  |  |  |  | 0.0775 ± 0.0109 | 61.7 ± 1.67 | 0.0358 ± 0.00377 | 82.3 ± 3.67 | 
5 | CS(=O)(=O)c1cc2c([nH]c1=O)C[C@]13CCN(CC4CC4)[C@H](Cc4ccc(O)cc41)[C@@H]3C2 [Compound 9, (6R,6aR,12aS)-15-(cyclopropylmethyl)-2-hydroxy-9-(methylsulfonyl)-6a,7,11,12-tetrahydro-5H-6,12a-(epiminoethano)naphtho[2,1-g]quinolin-10(6H)-one] |  | > 20 | 2.5 |  |  |  |  |  |  | 
6 | O=c1[nH]c2c(cc1S(=O)(=O)c1ccccc1)C[C@H]1[C@H]3Cc4ccc(O)cc4[C@@]1(CCN3CC1CC1)C2 [Compound 10, (6R,6aR,12aS)-15-(cyclopropylmethyl)-2-hydroxy-9-(phenylsulfonyl)-6a,7,11,12-tetrahydro-5H-6,12a-(epiminoethano)naphtho[2,1-g]quinolin-10(6H)-one] |  | > 20 | 2 |  |  |  |  |  |  | 
7 | CN1CC[C@]23Cc4[nH]c(=O)c(S(C)(=O)=O)cc4C[C@H]2[C@H]1Cc1ccc(O)cc13 [Compound 11, (6R,6aR,12aS)-2-hydroxy-15-methyl-9-(methylsulfonyl)-6,6a,7,12-tetrahydro-5H-6,12a-(epiminoethano)naphtho[2,1-g]quinolin-10(11H)-one] | 0.0131 ± 0.00227 | 0.259 ± 0.0535 | 20.7 ± 1.76 | 0.107 ± 0.0287 | 16.7 ± 1.21 |  |  |  |  | 
8 | CN1CC[C@]23Cc4[nH]c(=O)c(S(=O)(=O)c5ccccc5)cc4C[C@H]2[C@H]1Cc1ccc(O)cc13 [Compound 12, (6R,6aR,12aS)-2-hydroxy-15-methyl-9-(phenylsulfonyl)-6,6a,7,12-tetrahydro-5H-6,12a-(epiminoethano)naphtho[2,1-g]quinolin-10(11H)-one] | 0.00278 ± 0.00075 | 0.0831 ± 0.0241 | 19.8 ± 2.63 | 0.0172 ± 0.00422 | 17.2 ± 1.04 |  |  |  |  | 
